Laboratory results reported in US20220257793A1, “COMPOSITIONS AND USE OF ENGINEERED MYOGENIC CELLS” (Institute of Zoology, Chinese Academy of Sciences, priority 2019, published 2022).

Tests used:
diabetic nude mice = experiment: Transplantation of iMusc-Insm cells into streptozotocin diabetic nude mice; format: in vivo, mouse; conditions: after streptozotocin treatment, before transplantation
Method: To determine whether differentiated iMusc-Insm cells were able to produce bioactive insulin and treat diabetes mellitus in vivo, 5×10^6 iMusc-Insm and iMusc-neo myoblast cells were transplanted by direct skeletal muscle injection into 6-8 week old male athymic nude mice (B6.Cg-Foxn1^nn/J; Jackson Labs) that have received daily intraperitoneal injections of 40 mg/kg streptozotocin (Tocris Bioscience), dissolved in 0.1M citrate buffer (pH 4.5), for 5 consecutive days, to model diabetes mellitus. Glycemia and insulinemia were measured in fed mice every 3-7 days, for 3 weeks after injection of the cells. Blood glucose was measured using a glucometer (Roche), while plasma insulin was measured by ELISA (Mercodia).

TS progenitors = experiment: Cell counts after drug treatment, TS; format: cell-based, human
Method: (§1) HSKM, TS and LTS cells were seeded in gelatin-coated six-well plates at a density of 4×10^4 cells/well and maintained with culture medium. One day after seeding, culture medium was replaced with culture medium containing either paraquat (Sigma-Aldrich; 2 μM), hydrogen peroxide (ICM Pharma; 100 μM), DTT (Thermo Fisher; 250 μM), 2-deoxyglucose (Sigma-Aldrich; 2.5 mM), KC7F2 (Sigma-Aldrich; 10 μM) or DMSO/H2O controls. For ROS modulators, cells were allowed to grow for 72 hours post-treatment, while for 2-DG, cells were allowed to grow for eight days post-treatment.

LTS progenitors [1] = experiment: qRT-PCR after ROS-modulating drugs in LTS progenitors; format: cell-based, human
Method: as §1, with “RNA was extracted by TRIzol (Thermo Fisher) and reverse transcribed with Superscript III (Thermo Fisher) according to manufacturer's instructions. The resulting cDNA was diluted 5× before performing qPCR with KAPA SYBR FAST on ABI Prism 7900HT (Applied Biosystems) according to manufacturers' instructions. HSKM,” for “HSKM,”

[2] = test system: mitochondrial ROS in HSKM, TS and LTS cells; experiment: Flow cytometry oxidation state assay with mito-Grx1-roGFP2; format: cell-based, human; conditions: all progenitor types (HSKM, TS, LTS); H2O2 100 μM, DTT 250 μM
Method: HSKM, TS and LTS cells were transduced with the roGFP2 retrovirus for 48 hours. Cells were allowed to expand to 15-cm tissue culture plates and then harvested for fluorescence-activated cell sorting for roGFP2+ cells using the FITC channel with a BD FACS Aria II cell sorter. HSKM, TS and LTS cells were seeded in gelatin-coated six-well plates at a density of 4×10^4 cells/well and maintained with culture medium. […] Cells were allowed to grow for 48 hours and then harvested for flow cytometry using a BD LSR Fortessa x-20 analyzer. HSKM, TS and LTS cells were used as non-fluorescent gating controls for each of their respective roGFP2+ counterparts. For each cell line, FSC, SSC, 405 nm/AmCyan and 488 nm/FITC channels were captured. FCS files were exported from FACS Diva and imported into FlowJo, where raw-value CSV files were exported. Raw values of 405 nm/488 nm ratio was calculated and then averaged for each cell line and condition.

HSKM progenitors = experiment: Cell counts after drug treatment, HSKM; format: cell-based, human
Method: as §1

LTS progenitors [3] = experiment: Cell counts after drug treatment, LTS; format: cell-based, human
Method: as §1

LTS progenitors [4] = experiment: let-7 microRNA mimic transfection; format: cell-based, human
Method: HSKM, TS and LTS cells were seeded in gelatin-coated six-well plates at a density of 4×10^4 cells/well and maintained with culture medium. PEI (14.5 ng/μL), mature Mirvana hsa-let-7a-5p (#4464066; Assay ID: MC10050; Thermo Fisher) and/or hsa-let-7b-5p (#4464066; Assay ID: MC11050; Thermo Fisher) mimic (0.25 μM) or Cy5-conjugated scramble RNAi control, was mixed with serum-free DMEM to a total volume of 200 μL. This mixture was transfected onto each well.

Compound	progenitor proliferation (cell counts) (TS progenitors)	progenitor proliferation (cell counts) (HSKM progenitors)	progenitor proliferation (cell counts) (LTS progenitors [3])	also measured
CN(N=O)C(=O)N[C@H]1C(O)O[C@H](CO)[C@@H](O)[C@@H]1O (mixture of isomers) [streptozotocin]				fed glucose levels (diabetic nude mice): ~346 mg/dL; fed insulin levels (diabetic nude mice): ~63 μIU/ml
O[C@H](CS)[C@H](O)CS (racemic) [DTT, dithiothreitol]	no significant effects	no significant effects	significant suppression of LTS progenitor proliferation in a dose-dependent fashion	HIF1A targets and glycolysis genes mRNA (LTS progenitors [1]): could suppress; OxPhos mRNA levels (LTS progenitors [1]): failed to perturb; effect on mtROS [2]: most reliably reduced mtROS
O=CC[C@@H](O)[C@H](O)[C@H](O)CO [2-deoxyglucose]	mild but significant decreases	mild but significant decreases	mild but significant decreases	
OO [H2O2, hydrogen peroxide]	no significant effects	no significant effects	significant suppression of LTS progenitor proliferation in a dose-dependent fashion	HIF1A targets and glycolysis genes mRNA (LTS progenitors [1]): could suppress; OxPhos mRNA levels (LTS progenitors [1]): failed to perturb; effect on mtROS [2]: most reliably increased mtROS
O=S(=O)(NCCSSCCNS(=O)(=O)c1cc(Cl)ccc1Cl)c1cc(Cl)ccc1Cl [KC7F2]	no significant effects	no significant effects	significantly suppressed LTS progenitor proliferation	
hsa-let-7a-5p				effect on proliferation rate (cell counts) (LTS progenitors [4]): neither let-7a, nor let-7b, nor both, had any effect
hsa-let-7b-5p				effect on proliferation rate (cell counts) (LTS progenitors [4]): neither let-7a, nor let-7b, nor both, had any effect
